PubChem BioAssay (NCI)
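Growth conditions: 96-well plates. Treatment: test compound, 48 hours, 5 concentrations. Analysis: linear interpolation between bracketing concentrations; unreached endpoints set to highest concentration. TGI is the concentration that stops growth completely.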

What was measured:
Test in all cases: NCI-60 cell line screen, 48 h
[1] = system: OVCAR-8 ovarian
[2] = system: NCI-H23 lung
[3] = system: UACC-257 melanoma
[4] = system: SR leukemia
[5] = system: PC-3 prostate
[6] = system: SK-MEL-5 melanoma
[7] = system: HS 578T breast
[8] = system: SNB-19 CNS
[9] = system: A549 NSCLC
[10] = system: CAKI-1 renal
[11] = system: SNB-75 CNS
[12] = system: RXF 393 renal
[13] = system: K-562 leukemia
[14] = system: T-47D breast
[15] = system: M14 melanoma
[16] = system: OVCAR-3 ovarian
[17] = system: MOLT-4 leukemia
[18] = system: SK-MEL-2 melanoma
[19] = system: BT-549 breast
[20] = system: MCF7 breast
[21] = system: TK-10 renal
[22] = system: OVCAR-5 ovarian
[23] = system: NCI/ADR-RES ovarian
[24] = system: LOX IMVI melanoma
[25] = system: SF-295 CNS
[26] = system: SW-620 colon
[27] = system: MDA-MB-231 breast
[28] = system: ACHN renal
[29] = system: IGROV1 ovarian
[30] = system: OVCAR-4 ovarian
[31] = system: NCI-H460 lung
[32] = system: MDA-MB-435
[33] = system: SF-539 CNS
[34] = system: HL-60(TB) leukemia
[35] = system: COLO 205 colon
[36] = system: EKVX NSCLC
[37] = system: U251 CNS
[38] = system: CCRF-CEM leukemia
[39] = system: SK-MEL-28 melanoma
[40] = system: 786-0 renal
[41] = system: SN12C renal
[42] = system: HCT-116 colon
[43] = system: SK-OV-3 ovarian
[44] = system: MDA-N
[45] = system: NCI-H226 lung
[46] = system: HOP-92 NSCLC
[47] = system: NCI-H522 lung
[48] = system: SF-268 CNS
[49] = system: DU-145 prostate
[50] = system: A498 renal
[51] = system: MALME-3M melanoma
[52] = system: RPMI-8226 leukemia
[53] = system: UACC-62 melanoma
[54] = system: HOP-62 NSCLC
[55] = system: HT29 colon
[56] = system: KM12 colon
[57] = system: HCT-15 colon
[58] = system: HCC-2998 colon
[59] = system: UO-31 renal

COc1ccc(/C=C(/C#N)C(N)=O)cc1OC was tested, and the TGI [1] was over 100 µM, the TGI [2] was over 100 µM and the TGI [3] was over 100 µM. For the same molecule, the TGI [4] was over 100 µM, the TGI [5] was over 100 µM and the TGI [6] was over 100 µM. The TGI [7] was over 100 µM, the TGI [8] was over 100 µM and the TGI [9] was over 100 µM. For the same molecule, the TGI [10] was over 100 µM, the TGI [11] was over 100 µM and the TGI [12] was over 100 µM. It also gave a TGI [13] of over 100 µM, a TGI [14] of over 100 µM and a TGI [15] of over 100 µM. The TGI [16] was over 100 µM, the TGI [17] was over 100 µM and the TGI [18] was over 100 µM. The TGI [19] was over 100 µM, the TGI [20] was over 100 µM and the TGI [21] was over 100 µM. It also gave a TGI [22] of over 100 µM, a TGI [23] of over 100 µM and a TGI [24] of over 100 µM. For the same molecule, the TGI [25] was over 100 µM, the TGI [26] was over 100 µM and the TGI [27] was over 100 µM. It also gave a TGI [28] of over 100 µM, a TGI [29] of over 100 µM and a TGI [30] of over 100 µM. For the same molecule, the TGI [31] was over 100 µM, the TGI [32] was over 100 µM and the TGI [33] was over 100 µM. For the same molecule, the TGI [34] was over 100 µM, the TGI [35] was over 100 µM and the TGI [36] was over 100 µM. The TGI [37] was over 100 µM, the TGI [38] was over 100 µM and the TGI [39] was over 100 µM. The TGI [40] was over 100 µM, the TGI [41] was over 100 µM and the TGI [42] was over 100 µM. The TGI [43] was over 100 µM, the TGI [44] was over 100 µM and the TGI [45] was over 100 µM. It also gave a TGI [46] of over 100 µM, a TGI [47] of over 100 µM and a TGI [48] of over 100 µM. It also gave a TGI [49] of over 100 µM, a TGI [50] of over 100 µM and a TGI [51] of over 100 µM. The TGI [52] was over 100 µM, the TGI [53] was over 100 µM and the TGI [54] was over 100 µM. The TGI [55] was over 100 µM, the TGI [56] was over 100 µM and the TGI [57] was over 100 µM.
For COc1ccc2c(C)cc(N/N=C(\C)C=O)nc2c1, the TGI [1] was 25 µM, the TGI [2] was 24.8 µM and the TGI [3] was 33.9 µM. For the same molecule, the TGI [4] was 3.79 µM, the TGI [5] was 24.2 µM and the TGI [6] was 26.7 µM. For the same molecule, the TGI [7] was 43.3 µM, the TGI [8] was 31.6 µM and the TGI [9] was 38.6 µM. It also gave a TGI [10] of 27.8 µM, a TGI [11] of 29.8 µM and a TGI [12] of 30.2 µM. For the same molecule, the TGI [13] was 5.05 µM, the TGI [14] was 41.3 µM and the TGI [15] was 35.2 µM. For the same molecule, the TGI [16] was 7.59 µM, the TGI [17] was 15.9 µM and the TGI [18] was 33.1 µM. For the same molecule, the TGI [19] was 29.3 µM, the TGI [20] was 26 µM and the TGI [21] was 30.1 µM. For the same molecule, the TGI [22] was 28.2 µM, the TGI [58] was 24.5 µM and the TGI [23] was 25.7 µM. The TGI [24] was 24 µM, the TGI [25] was 28.8 µM and the TGI [26] was 27.5 µM. For the same molecule, the TGI [27] was 24 µM, the TGI [28] was 29.7 µM and the TGI [29] was 33.5 µM. It also gave a TGI [30] of 25.5 µM, a TGI [31] of 24.9 µM and a TGI [32] of 25.5 µM. The TGI [33] was 20.3 µM, the TGI [35] was 30.6 µM and the TGI [36] was 32.8 µM. The TGI [37] was 30.4 µM, the TGI [38] was 4 µM and the TGI [39] was 32.4 µM. The TGI [40] was 28.6 µM, the TGI [41] was 26.8 µM and the TGI [42] was 26.5 µM. The TGI [43] was 23.2 µM, the TGI [44] was 28.6 µM and the TGI [45] was 24.7 µM. For the same molecule, the TGI [46] was 25.1 µM, the TGI [47] was 29.6 µM and the TGI [48] was 41.1 µM. For the same molecule, the TGI [49] was 24.7 µM, the TGI [59] was 26.4 µM and the TGI [50] was 27.9 µM. The TGI [51] was 28 µM, the TGI [52] was 22.9 µM and the TGI [53] was 27.3 µM. For the same molecule, the TGI [54] was 27.1 µM, the TGI [55] was 25 µM and the TGI [56] was 25.8 µM. The TGI [57] was 15.2 µM.
